12 molecules from US20110160167A1, “Steroid Derivatives Acting As Glucocorticosteroid Receptor Agonists” (AstraZeneca AB, priority 2007, published 2011) can be followed below.

Structures are written as SMILES.

The target of this assay is T1, recombinant human GR (Homo sapiens, UniProt P04150).
T1 construct: purchased Panvera/Invitrogen P2812 (kit P2893)
T1 sequence (P04150 1-777): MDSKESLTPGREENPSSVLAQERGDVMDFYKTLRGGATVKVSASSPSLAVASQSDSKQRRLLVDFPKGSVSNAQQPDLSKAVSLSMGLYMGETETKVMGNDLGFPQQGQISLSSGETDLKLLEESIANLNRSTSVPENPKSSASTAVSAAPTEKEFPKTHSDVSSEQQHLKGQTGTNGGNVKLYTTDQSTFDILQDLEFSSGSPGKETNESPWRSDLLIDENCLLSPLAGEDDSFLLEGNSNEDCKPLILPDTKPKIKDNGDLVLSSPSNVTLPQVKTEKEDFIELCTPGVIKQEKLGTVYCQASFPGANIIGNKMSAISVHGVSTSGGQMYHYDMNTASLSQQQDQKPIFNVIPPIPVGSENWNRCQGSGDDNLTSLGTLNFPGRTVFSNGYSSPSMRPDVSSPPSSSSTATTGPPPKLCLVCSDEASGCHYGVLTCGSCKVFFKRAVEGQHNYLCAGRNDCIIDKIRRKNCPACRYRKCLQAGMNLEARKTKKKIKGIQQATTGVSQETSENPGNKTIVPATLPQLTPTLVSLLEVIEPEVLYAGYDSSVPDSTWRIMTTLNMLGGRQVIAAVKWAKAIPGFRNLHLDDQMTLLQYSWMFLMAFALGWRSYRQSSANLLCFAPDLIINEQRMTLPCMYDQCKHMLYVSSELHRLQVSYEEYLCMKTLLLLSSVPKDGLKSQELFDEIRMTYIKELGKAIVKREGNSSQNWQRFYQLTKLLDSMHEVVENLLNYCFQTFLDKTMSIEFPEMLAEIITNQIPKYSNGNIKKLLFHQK
The assay is described as follows: Human Glucocorticoid Receptor (GR) Assay (fluorescence polarization, Panvera/Invitrogen kit). To be noted: GS Red tracer, 2 hours at room temperature, 100% control 10 μM Dexamethasone, read-out: Inhibition of GR binding, IC50. As for the experimental part: Human Glucocorticoid Receptor (GR) Assay The assay is based on a commercial kit from Panvera/Invitrogen (Part number P2893). The assay technology is fluorescence polarization. The kit utilises recombinant human GR (Panvera, Part number P2812), a Fluoromone™ labelled tracer (GS Red, Panvera, Part number P2894) and a Stabilizing Peptide 10× (Panvera, Part number P2815). The GR and Stabilizing Peptide reagents are stored at −70° C. while the GS Red is stored at −20° C. Also included in the kit are 1M DTT (Panvera, Part number P2325, stored at −20° C.) and GR Screening buffer 10× (Panvera, Part number P2814, stored at −70° C. initially but once thawed stored at room temperature). Avoid repeated freeze/thaws for all reagents. The GR Screening buffer 10× comprises 100 mM potassium phosphate, 200 mM sodium molybdate, 1 mM EDTA and 20% DMSO. Test compounds (1 μL) and controls (1 μL) in 100% DMSO were added to black polystyrene 384-well plates (Greiner low volume black flat-bottom, part number 784076). 0% control was 100% DMSO and 100% control was 10 μM Dexamethasone. Background solution (8 μL; assay buffer 10×, Stabilizing Peptide, DTT and ice cold MQ water) was added to the background wells. GS Red solution (7 μL; assay buffer 10×, Stabilizing Peptide, DTT, GS Red and ice cold water) was added to all wells except background wells. GR solution (7 μL; assay buffer 10×, Stabilizing Peptide, DTT, GR and ice cold water) was added to all wells. The plate was sealed and incubated in a dark at room temperature for 2 hours. The plate was read in an Analyst plate reader (LJL Biosystems/Molecular Devices Corporation) or other similar plate reader capable of recording fluorescence polarization (excitation wavelength 530 nm, emission wavelength 590 nm and a dichroic mirror at 561 nm).
(Fluorescence polarisation rises when a labelled molecule tumbles more slowly, as on binding a larger partner.)
As a reminder, the IC50 is the concentration at which inhibition is half-maximal. As to `CCC[C@@H]1O[C@@H]2C[C@H]3[C@@H]4CCC5=Cc6c(cnn6-c6ccc(F)c(CN7CCOCC7)c6)C[C@]5(C)[C@H]4[C@@H](O)C[C@]3(C)[C@]2(C(=O)CO)O1` [Example 1, 1-[(4aR,4bS,5S,6aS,6bS,8R,9aR,10aS,10bS)-1-[4-fluoro-3-(morpholin-4-ylmethyl)phenyl]-5-hydroxy-4a,6a-dimethyl-8-propyl-4,4a,4b,5,6,6a,9a,10,10a,10b,11,12-dodecahydro[1,3]-dioxolo[3′,4′]cyclopenta-[1′,2′:5,6]naphtho[1,2-f]indazol-6b(1H)-yl]-2-hydroxyethanone trifluoroacetic acid], the IC50 was determined as 0.008 µM.

For the molecule `CCC[C@H]1O[C@@H]2C[C@H]3[C@@H]4CCC5=Cc6c(cnn6-c6ccc(F)c(CN7CCOCC7)c6)C[C@]5(C)[C@H]4[C@@H](O)C[C@]3(C)[C@]2(C(=O)CO)O1` [Example 2], the concentration for half-maximal inhibition (IC50) turned out to be 0.0087 µM.

As to `CCC[C@@H]1O[C@@H]2C[C@H]3[C@@H]4CCC5=Cc6c(cnn6-c6ccc(F)c(CN7CCCC7)c6)C[C@]5(C)[C@H]4[C@@H](O)C[C@]3(C)[C@]2(C(=O)CO)O1` [Example 3, 1-[(4aR,4bS,5S,6aS,6bS, 8R,9aR,10aS,10bS)-1-[4-fluoro-3-(pyrrolidin-1-ylmethyl)phenyl]-5-hydroxy-4a,6a-dimethyl-8-propyl-4,4a,4b,5,6,6a,9a,10, 10a,10b,11,12-dodecahydro[1,3]dioxolo [3′,4′]cyclopenta [1′,2′:5,6]naphtho[1,2-f]indazol-6b(1H)-yl]-2-hydroxyethanone], the IC50 turned out to be 0.037 µM.

On to `CCC[C@@H]1O[C@@H]2C[C@H]3[C@@H]4CCC5=Cc6c(cnn6-c6ccc(F)c(CN7CCN(C)CC7)c6)C[C@]5(C)[C@H]4[C@@H](O)C[C@]3(C)[C@]2(C(=O)CO)O1` [Example 4, 1-[(4aR,4bS,5S,6aS,6bS, 8R,9aR,10aS,10bS)-1-{4-fluoro-3-[(4-methylpiperazin-1-yl)methyl]phenyl}-5-hydroxy-4a,6a-dimethyl-8-propyl-4,4a,4b,5,6,6a,9a,10, 10a,10b,11,12-dodecahydro[1,3]dioxolo [3′,4′]cyclopenta [1′,2′:5,6]naphtho[1,2-f]indazol-6b(1H)-yl]-2-hydroxyethanone trifluoroacetic acid], for which the IC50 came to 0.021 µM.

As to `CCC[C@H]1O[C@@H]2C[C@H]3[C@@H]4CCC5=Cc6c(cnn6-c6ccc(F)c(CN7CCN(C)CC7)c6)C[C@]5(C)[C@H]4[C@@H](O)C[C@]3(C)[C@]2(C(=O)CO)O1` [Example 5, 1-[(4aR,4bS,5S,6aS,6bS, 8S,9aR,10aS,10bS)-1-{4-fluoro-3-[(4-methylpiperazin-1-yl)methyl]phenyl}-5-hydroxy-4a,6a-dimethyl-8-propyl-4,4a,4b,5,6,6a,9a,10, 10a,10b,11,12-dodecahydro[1,3]dioxolo [3′,4′]cyclopenta [1′,2′:5,6]naphtho[1,2-f]indazol-6b(1H)-yl]-2-hydroxyethanone trifluoroacetic acid], the IC50 stood at 0.077 µM.

As for `CCC[C@@H]1OC2C[C@H]3[C@@H]4CCC5=Cc6c(cnn6-c6ccc(F)c(CN(CC)CC)c6)C[C@]5(C)[C@H]4[C@@H](O)C[C@]3(C)[C@]2(C(=O)CO)O1` (stereo partly drawn) [Example 6, 1-[(4aR,4bS,5S,6aS,6bS, 8R,9aR,10aS,10bS)-1-{3-[(diethylamino)methyl]-4-fluorophenyl}-5-hydroxy-4a,6a-dimethyl-8-propyl-4,4a,4b,5,6,6a,9a,10, 10a,10b,11,12-dodecahydro[1,3]dioxolo [3′,4′]cyclopenta [1′,2′:5,6]naphtho[1,2-f]indazol-6b(1H)-yl]-2-hydroxyethanone], the half-maximal inhibitory concentration (IC50) is 0.072 µM.

Turning to `CCC[C@@H]1O[C@@H]2C[C@H]3[C@@H]4CCC5=Cc6c(cnn6-c6ccc(F)c(CN7CCSCC7)c6)C[C@]5(C)[C@H]4[C@@H](O)C[C@]3(C)[C@]2(C(=O)CO)O1` [Example 7, 1-[(4aR,4bS,5S,6aS,6bS, 8R,9aR,10aS,10bS)-1-[4-fluoro-3-(thiomorpholin-4-ylmethyl)phenyl]-5-hydroxy-4a,6a-dimethyl-8-propyl-4,4a,4b,5,6,6a,9a,10, 10a,10b,11,12-dodecahydro[1,3]dioxolo [3′,4′]cyclopenta [1′,2′:5,6]naphtho[1,2-f]indazol-6b(1H)-yl]-2-hydroxyethanone trifluoroacetic acid], the IC50 is 0.012 µM.

Consider `CCC[C@H]1O[C@@H]2C[C@H]3[C@@H]4CCC5=Cc6c(cnn6-c6ccc(F)c(CN7CCSCC7)c6)C[C@]5(C)[C@H]4[C@@H](O)C[C@]3(C)[C@]2(C(=O)CO)O1` [Example 8, 1-[(4aR,4bS,5S,6aS,6bS, 8S,9aR,10aS,10bS)-1-[4-fluoro-3-(thiomorpholin-4-ylmethyl)phenyl]-5-hydroxy-4a,6a-dimethyl-8-propyl-4,4a,4b,5,6,6a,9a,10, 10a,10b,11,12-dodecahydro[1,3]dioxolo [3′,4′]cyclopenta [1′,2′:5,6]naphtho[1,2-f]indazol-6b(1H)-yl]-2-hydroxyethanone trifluoroacetic acid], for which the IC50 worked out at 0.016 µM.

As for `CCC[C@@H]1O[C@@H]2C[C@H]3[C@@H]4CCC5=Cc6c(cnn6-c6ccc(F)c(CN7CCC(O)CC7)c6)C[C@]5(C)[C@H]4[C@@H](O)C[C@]3(C)[C@]2(C(=O)CO)O1` [Example 9, 1-[(4aR,4bS,5S,6aS,6bS, 8R,9aR,10aS,10bS)-1-{4-fluoro-3-[(4-hydroxypiperidin-1-yl)methyl]phenyl}-5-hydroxy-4a,6a-dimethyl-8-propyl-4,4a,4b,5,6,6a,9a,10, 10a,10b,11,12-dodecahydro[1,3]dioxolo [3′,4′]cyclopenta [1′,2′:5,6]naphtho[1,2-f]indazol-6b(1H)-yl]-2-hydroxyethanone trifluoroacetic acid], the half-inhibitory concentration (IC50) is 0.021 µM.

Regarding `CCC[C@H]1O[C@@H]2C[C@H]3[C@@H]4CCC5=Cc6c(cnn6-c6ccc(F)c(CN7CCC(O)CC7)c6)C[C@]5(C)[C@H]4[C@@H](O)C[C@]3(C)[C@]2(C(=O)CO)O1` [Example 10, 1-[(4aR,4bS,5S,6aS,6bS, 8S,9aR,10aS,10bS)-1-{4-fluoro-3-[(4-hydroxypiperidin-1-yl)methyl]phenyl}-5-hydroxy-4a,6a-dimethyl-8-propyl-4,4a,4b,5,6,6a,9a,10, 10a,10b,11,12-dodecahydro[1,3]dioxolo [3′,4′]cyclopenta [1′,2′:5,6]naphtho[1,2-f]indazol-6b(1H)-yl]-2-hydroxyethanone trifluoroacetic acid], the 50% inhibitory concentration (IC50) was determined as 0.067 µM.

As to `CCC[C@@H]1O[C@@H]2C[C@H]3[C@@H]4CCC5=Cc6c(cnn6-c6ccc(F)c(CNCCCO)c6)C[C@]5(C)[C@H]4[C@@H](O)C[C@]3(C)[C@]2(C(=O)CO)O1` [Example 11, 1-[(4aR,4bS,5S,6aS,6bS, 8R,9aR,10aS,10bS)-1-(4-fluoro-3-{[(3-hydroxypropyl)amino]methyl}phenyl)-5-hydroxy-4a,6a-dimethyl-8-propyl-4,4a,4b,5,6,6a,9a,10, 10a,10b,11,12-dodecahydro[1,3]dioxolo [3′,4′]cyclopenta [1′,2′:5,6]naphtho[1,2-f]indazol-6b(1H)-yl]-2-hydroxyethanone trifluoroacetic acid], the 50% inhibitory concentration (IC50) was 0.034 µM.

`CCC[C@H]1O[C@@H]2C[C@H]3[C@@H]4CCC5=Cc6c(cnn6-c6ccc(F)c(CNCCCO)c6)C[C@]5(C)[C@H]4[C@@H](O)C[C@]3(C)[C@]2(C(=O)CO)O1` [Example 12, 1-[(4aR,4bS,5S,6aS,6bS, 8S,9aR,10aS,10bS)-1-(4-fluoro-3-{[(3-hydroxypropyl)amino]methyl}phenyl)-5-hydroxy-4a,6a-dimethyl-8-propyl-4,4a,4b,5,6,6a,9a,10, 10a,10b,11,12-dodecahydro[1,3]dioxolo [3′,4′]cyclopenta [1′,2′:5,6]naphtho[1,2-f]indazol-6b(1H)-yl]-2-hydroxyethanone trifluoroacetic acid]: the concentration for half-maximal inhibition (IC50) turned out to be 0.076 µM.
